Reference: paper PMC6130797 (ACS Omega, 2018)
“And” between values parts separate entries of the source, which are not always exact repeats. Equal values may be shown once. Read-outs that look alike come from different tables or passages of the source.

Columns and labels:
hH4R [1] = biological target: T1, hH4R (Homo sapiens, UniProt Q9H3N8); test: Radioligand competition binding with [3H]histamine, Sf9 cell membranes; settings: hH4R pKi
gpH1R = gpH1R (Cavia porcellus, UniProt P31389); test: Histamine H1 receptor assay on isolated guinea pig ileum
hH1R = hH1R (Homo sapiens, UniProt P35367); test: biochemical; assay type: binding; settings: hH1R pKi
gpH2R [2] = biological target: T2, gpH2R (Cavia porcellus, UniProt P47747); set-up: species or system guinea pig
Target sequence in this assay (P47747 whole entry): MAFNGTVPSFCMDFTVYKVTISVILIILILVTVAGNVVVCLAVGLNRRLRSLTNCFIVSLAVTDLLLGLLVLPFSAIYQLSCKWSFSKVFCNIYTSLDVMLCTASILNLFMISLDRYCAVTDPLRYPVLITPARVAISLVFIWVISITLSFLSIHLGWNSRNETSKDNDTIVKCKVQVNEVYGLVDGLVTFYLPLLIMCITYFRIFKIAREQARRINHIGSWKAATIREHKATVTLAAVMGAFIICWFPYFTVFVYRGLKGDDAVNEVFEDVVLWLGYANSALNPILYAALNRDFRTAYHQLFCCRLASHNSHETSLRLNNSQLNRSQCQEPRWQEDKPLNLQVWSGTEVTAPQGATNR

hH2R [3] = biological target: T3, hH2R (Homo sapiens, UniProt P25021); assay type: binding; settings: for Ki: hH2R pKi, [3H]tiotidine (Kd […], c = 10 nM), mean ± SEM; for difference in pKi (H2R) over pKi (H1,3,4R): hH2R selectivity from radioligand binding
hH3R [4] = biological target: T4, hH3R (Homo sapiens, UniProt Q9Y5N1); test: Radioligand competition binding with [3H]Nα-methylhistamine, Sf9 cell membranes; settings: hH3R pKi, [3H]Nα-methylhistamine (Kd 8.6 nM, c = 3 nM); mean ± SEM
hH4R [5] = biological target: T1, hH4R; test: [35S]GTPγS binding assay, Sf9 cell membranes; assay type: biochemical
hH2R [6] = biological target: T3, hH2R; test: [35S]GTPγS binding assay, Sf9 cell membranes; assay type: biochemical
hH3R [7] = biological target: T4, hH3R; test: [35S]GTPγS binding assay, Sf9 cell membranes; assay type: biochemical
gpH2R [8] = biological target: T2, gpH2R; test: biochemical; assay type: biochemical, guinea pig
Target sequence in this assay (P47747 whole entry): as above
Target sequence in this assay (P63092 1-380 isoform P63092-2 partner): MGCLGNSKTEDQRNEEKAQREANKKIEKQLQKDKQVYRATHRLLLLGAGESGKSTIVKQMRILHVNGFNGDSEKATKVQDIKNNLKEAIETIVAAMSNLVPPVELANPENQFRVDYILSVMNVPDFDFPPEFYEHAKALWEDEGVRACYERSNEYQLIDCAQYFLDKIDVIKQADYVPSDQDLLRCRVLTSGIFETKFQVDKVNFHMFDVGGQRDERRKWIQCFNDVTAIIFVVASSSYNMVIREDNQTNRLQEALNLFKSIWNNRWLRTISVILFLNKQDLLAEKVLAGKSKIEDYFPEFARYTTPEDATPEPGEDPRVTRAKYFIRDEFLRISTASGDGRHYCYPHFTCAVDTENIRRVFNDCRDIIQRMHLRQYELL

rH2R = rH2R (Rattus norvegicus, UniProt P25102); test: [35S]GTPγS binding assay, Sf9 cell membranes; assay type: biochemical
rH2R, sequence (P25102 whole entry): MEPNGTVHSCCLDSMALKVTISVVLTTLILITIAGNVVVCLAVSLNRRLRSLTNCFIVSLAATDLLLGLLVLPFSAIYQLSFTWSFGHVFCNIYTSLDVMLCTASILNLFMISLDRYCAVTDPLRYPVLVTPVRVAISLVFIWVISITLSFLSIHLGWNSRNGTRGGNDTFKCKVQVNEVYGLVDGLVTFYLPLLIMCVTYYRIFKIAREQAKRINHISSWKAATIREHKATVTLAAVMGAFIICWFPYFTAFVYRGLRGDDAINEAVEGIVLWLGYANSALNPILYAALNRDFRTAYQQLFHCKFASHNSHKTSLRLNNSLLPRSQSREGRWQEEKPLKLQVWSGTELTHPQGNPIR
rH2R, sequence (P63092 1-380 isoform P63092-2 partner): as the sequence (P63092 1-380 isoform P63092-2 partner) above

T3 sequence (P25021 whole entry): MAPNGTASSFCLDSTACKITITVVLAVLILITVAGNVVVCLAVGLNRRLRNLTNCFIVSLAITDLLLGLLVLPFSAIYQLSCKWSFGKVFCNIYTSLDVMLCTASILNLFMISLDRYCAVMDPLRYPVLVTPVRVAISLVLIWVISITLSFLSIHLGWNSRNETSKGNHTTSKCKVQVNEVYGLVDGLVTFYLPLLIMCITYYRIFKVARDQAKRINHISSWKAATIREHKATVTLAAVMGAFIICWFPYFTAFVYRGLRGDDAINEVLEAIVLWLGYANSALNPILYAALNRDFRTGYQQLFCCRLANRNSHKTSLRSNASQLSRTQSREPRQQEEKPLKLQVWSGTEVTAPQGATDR
T3 sequence (P63092 1-380 isoform P63092-2 partner): as the sequence (P63092 1-380 isoform P63092-2 partner) above
T4 sequence (Q9Y5N1 whole entry): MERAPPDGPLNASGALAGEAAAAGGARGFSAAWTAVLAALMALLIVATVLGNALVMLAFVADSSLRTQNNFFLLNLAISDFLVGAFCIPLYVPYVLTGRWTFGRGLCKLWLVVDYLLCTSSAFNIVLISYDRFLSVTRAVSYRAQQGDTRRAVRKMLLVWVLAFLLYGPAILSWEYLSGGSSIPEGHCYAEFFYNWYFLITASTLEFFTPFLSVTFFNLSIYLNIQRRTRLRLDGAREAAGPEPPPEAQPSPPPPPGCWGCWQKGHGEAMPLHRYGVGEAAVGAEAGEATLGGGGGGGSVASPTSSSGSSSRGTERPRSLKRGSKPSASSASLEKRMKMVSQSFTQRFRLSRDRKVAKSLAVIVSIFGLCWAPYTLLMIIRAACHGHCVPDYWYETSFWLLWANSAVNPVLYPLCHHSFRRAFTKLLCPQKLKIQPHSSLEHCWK
gpH1R, sequence (P31389 whole entry): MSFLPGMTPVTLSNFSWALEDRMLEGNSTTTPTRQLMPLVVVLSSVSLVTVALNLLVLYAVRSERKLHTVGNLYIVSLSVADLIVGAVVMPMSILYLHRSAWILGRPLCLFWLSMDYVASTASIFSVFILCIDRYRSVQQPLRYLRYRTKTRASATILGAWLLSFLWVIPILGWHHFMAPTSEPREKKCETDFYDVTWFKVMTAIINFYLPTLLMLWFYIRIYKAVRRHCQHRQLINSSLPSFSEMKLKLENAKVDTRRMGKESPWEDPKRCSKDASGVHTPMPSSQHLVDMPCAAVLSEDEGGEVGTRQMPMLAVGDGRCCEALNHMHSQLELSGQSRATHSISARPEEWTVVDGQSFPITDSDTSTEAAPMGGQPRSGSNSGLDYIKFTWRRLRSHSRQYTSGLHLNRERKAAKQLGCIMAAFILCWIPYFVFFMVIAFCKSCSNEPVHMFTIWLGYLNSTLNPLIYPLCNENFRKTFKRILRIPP
hH1R, sequence (P35367 whole entry): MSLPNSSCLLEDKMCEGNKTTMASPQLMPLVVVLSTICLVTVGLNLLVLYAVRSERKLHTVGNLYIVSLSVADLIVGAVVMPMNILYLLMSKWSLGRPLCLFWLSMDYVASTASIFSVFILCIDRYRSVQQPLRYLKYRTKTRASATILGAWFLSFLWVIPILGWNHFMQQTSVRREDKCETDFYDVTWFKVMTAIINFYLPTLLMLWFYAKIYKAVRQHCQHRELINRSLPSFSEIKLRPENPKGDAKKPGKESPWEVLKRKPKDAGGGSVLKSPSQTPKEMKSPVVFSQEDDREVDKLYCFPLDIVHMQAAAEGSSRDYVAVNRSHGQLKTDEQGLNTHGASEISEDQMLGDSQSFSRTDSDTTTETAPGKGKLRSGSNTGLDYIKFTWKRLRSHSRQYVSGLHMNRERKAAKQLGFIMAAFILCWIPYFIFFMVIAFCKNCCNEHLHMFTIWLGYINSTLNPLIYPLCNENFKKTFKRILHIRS

| Ki (hH4R [1]) | Kb (gpH1R) | Ki (hH1R) | EC50 (gpH2R [2]) | gpH2R Emax (gpH2R [2]) | Ki (hH2R [3]) | Ki (hH3R [4]) | Kb (hH4R [5]) | hH4R Emax (hH4R [5]) | EC50 (hH2R [6]) | hH2R Emax (hH2R [6]) | Kb (hH3R [7]) | hH3R Emax (hH3R [7]) | also measured | Structure (SMILES) |
| --- | --- | --- | --- | --- | --- | --- | --- | --- | --- | --- | --- | --- | --- | --- |
| 11.2 µM | 0.372 µM | > 3.16 µM | 0.562 µM | 0.70 ± 0.01 | 0.269 µM | 14.1 µM | – | – | – | – | – | – | – | CCCCCCCCCCCCNC(=N)NCCCc1cnc(N)s1 [Compound 140] |
| 0.0741 µM | 1.41 µM | > 1 µM | 0.0102 µM | 0.91 ± 0.03 | 0.117 µM | 0.0324 µM | 204 µM | 0 | 0.589 µM | 0.54 ± 0.05 | 0.0661 µM | 0 | – | Cc1nc(N)sc1CCCNC(=N)NCCCCCCCCNC(=N)NCCCc1c[nH]cn1 [Compound 61] |
| 7.24 µM | 1 µM | > 3.16 µM | 0.00275 µM | 0.88 ± 0.03 | 0.123 µM | 3.98 µM | 186 µM | 0 | 0.251 µM | 0.47 ± 0.03 | 21.4 µM | 0 | EC50 (gpH2R [8]): 0.0468 µM; gpH2R Emax (gpH2R [8]): 1.02 and 1.02 ± 0.04; Emax (gpH2R [2]): 88%; potency relative to histamine (gpH2R [2]; gpH2R, atrium): 250 times; EC50 (rH2R): 0.141 µM; rH2R Emax (rH2R): 0.87 ± 0.02; difference in pKi (H2R) over pKi (H1,3,4R) (hH2R [3]): at least 1.5 log units | Cc1nc(N)sc1CCCNC(=N)NCCCCCCCCNC(=N)NCCCc1cnc(N)s1 [Compound 63, 1-[3-(2-Amino-4-methylthiazol-5-yl)propyl]-3-{8-[3-(3-(2-aminothiazol-5-yl)propyl)guanidino]octyl}guanidine] |
| 52.5 µM | 0.832 µM | > 10 µM | 0.0204 µM | 0.94 ± 0.03 | 0.234 µM | 11 µM | 263 µM | 0 | 0.295 µM | 0.40 ± 0.05 | 89.1 µM | 0 | difference in pKi (H2R) over pKi (H1,3,4R) (hH2R [3]): at least 1.5 log units | N=C(NCCCCCCCCNC(=N)NCCCc1cnc(N)s1)NCCCc1cnc(N)s1 [Compound 59] |
| 5.62 µM | 0.437 µM | > 3.16 µM | 0.269 µM | 0.60 ± 0.02 | 0.468 µM | 2.04 µM | – | –0.97 ± 0.01 | 6.92 µM | – | 4.27 µM | 0 | EC50 (hH4R [5]): 13.8 µM; quality of action at hH4R (hH4R [5]; [35S]GTPγS binding assay): inverse agonistic activity | CCCCCCCCCCCCNC(=N)NCCCc1sc(N)nc1C [Compound 139] |
| 0.661 µM | 1.29 µM | > 10 µM | 0.038 µM | 0.94 ± 0.01 | 0.407 µM | 0.145 µM | – | – | – | – | – | – | – | N=C(NCCCCNC(=N)NCCCc1c[nH]cn1)NCCCc1c[nH]cn1 [Compound 54] |
| 33.9 µM | 4.27 µM | > 10 µM | 4.9 µM | 0.20 and 0.20 ± 0.02 | 4.47 µM | 2.75 µM | – | – | – | – | – | – | – | N=C(NCCCCCCCCNC(=N)NCCCn1ccnc1)NCCCn1ccnc1 [Compound 60] |
| 0.0263 µM | 58.9 µM | – | 7.94 µM | 0.58 ± 0.07 | 2.75 µM | 0.155 µM | – | – | – | – | – | – | Ki (hH1R; [3H]mepyramine (Kd 4.5 nM, c = 5 nM), mean ± SEM): > 31.6 µM | CNC(=N)NCCCc1c[nH]cn1 [Compound 127] |
| 0.107 µM | 0.977 µM | > 1 µM | 0.00562 µM | 1.02 ± 0.06 | 0.0537 µM | 0.0372 µM | 372 µM | 0 | 0.309 µM | 0.45 ± 0.04 | 0.0813 µM | 0 | – | N=C(NCCCCCCCCNC(=N)NCCCc1cnc(N)s1)NCCCc1c[nH]cn1 [Compound 62] |
| 12.9 µM | 0.372 µM | > 3.16 µM | – | 0 | 1.26 µM | 6.46 µM | – | – | – | – | – | – | gpH2R pEC50 (gpH2R [2]): not active | CCCCCCCCCCCCNC(=N)NCCCn1ccnc1 [Compound 141] |
| 0.0977 µM | 0.182 µM | 2 µM | 0.295 µM | 0.90 ± 0.03 | 0.141 µM | 0.0316 µM | – | – | – | – | – | – | gpH1R pA2 (gpH1R; guinea pig ileum, antagonism of histamine-induced contraction): 6.74 | CCCCCCCCCCNC(=N)NCCCc1c[nH]cn1 [Compound 137] |
| 0.0251 µM | 7.24 µM | > 10 µM | 0.24 µM | 0.89 ± 0.05 | 0.794 µM | 0.115 µM | – | – | – | – | – | – | – | CC(C)CCNC(=N)NCCCc1c[nH]cn1 [Compound 135] |
| 0.126 µM | 0.794 µM | > 3.16 µM | 0.195 µM | 1.13 ± 0.07 | 0.11 µM | 0.107 µM | 209 µM | 0 | 0.138 µM | 0.48 ± 0.02 | – | –0.53 ± 0.03 | EC50 (hH3R [7]): 0.0288 µM; quality of action at hH3R (hH3R [7]; [35S]GTPγS binding assay): inverse agonistic activity | CCCCCCCCNC(=N)NCCCc1c[nH]cn1 [Compound 136] |
